Measurements as given in patent publication US10189839B2, “Tricyclic imidazole compounds as inhibitors of tryptophan hydroxylase” (ACTELION PHARMACEUTICALS LTD, priority 2013, dated 2019).

What follows are compounds tested against T1, full length human TPH1 (Homo sapiens, UniProt P17752) (assay: Biochemical in vitro assay using fluorescence readout (TPH1 enzyme activity)). Details: Table 1, mean where determined several times.
T1 construct: To generate the enzyme, full length human TPH1 is cloned into the plasmid pET20b(+); made in house; host or cells: E. coli
T1 sequence (P17752 1-444): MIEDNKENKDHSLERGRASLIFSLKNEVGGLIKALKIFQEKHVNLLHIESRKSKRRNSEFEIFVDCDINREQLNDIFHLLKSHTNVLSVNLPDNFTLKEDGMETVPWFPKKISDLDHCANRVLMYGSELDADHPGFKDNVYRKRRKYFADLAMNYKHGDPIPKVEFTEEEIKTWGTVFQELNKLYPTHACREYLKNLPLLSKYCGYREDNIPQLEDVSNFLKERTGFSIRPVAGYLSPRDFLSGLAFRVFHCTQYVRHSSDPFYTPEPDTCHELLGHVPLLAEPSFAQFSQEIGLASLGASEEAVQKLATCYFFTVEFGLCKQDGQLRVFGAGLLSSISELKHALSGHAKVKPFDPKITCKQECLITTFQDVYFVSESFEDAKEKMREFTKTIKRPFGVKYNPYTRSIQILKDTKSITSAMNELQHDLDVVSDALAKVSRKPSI
Outline: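 E. coli-expressed full-length human TPH1 (40-80 nM), affinity- and size-exclusion-purified, incubated 60 min at 15° C. in 0.1M Tris-HCl pH 7.6 with 1 mM DTT, 0.2 mg/ml catalase, 100 μM 6-methyltetrahydropterine and 40 μM L-tryptophan. 5-Hydroxy-L-tryptophan read by fluorescence (ex 300/em 540 nm) after HClO4 quench; IC50 versus vehicle, mean where repeated.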

SMILES	IC50
CCc1nc(N2CCCS2(=O)=O)ccc1OCC(=O)N1CCc2nc3n(c2[C@@H]1c1sc(C)nc1C)CCC3 [Example 2.4.4, (R)-1-(1-(2,4-dimethylthiazol-5-yl)-3,4,7,8-tetrahydro-1H-pyrrolo[2′,1′:2,3]imidazo[4,5-c]pyridin-2(6H)-yl)-2-((6-(1,1-dioxidoisothiazolidin-2-yl)-2-ethylpyridin-3-yl)oxy)ethanone]	7 nM
CCc1nc(NS(C)(=O)=O)ccc1OCC(=O)N1CCc2nc3n(c2C1c1cnc(-c2ccccc2)s1)CCCC3 (centres unmarked) [Example 1.16.1, N-(6-ethyl-5-(2-oxo-2-(1-(2-phenylthiazol-5-yl)-3,4,6,7,8,9-hexahydroimidazo[1,2-a:5,4-c′]dipyridin-2(1H)-yl)ethoxy)pyridin-2-yl)methanesulfonamide]	225 nM
O=C(COc1ccc(N2CCOCC2)cc1Cl)N1CCc2nc3n(c2C1c1ccc(C2CC2)cc1F)CCNC3 (centres unmarked) [Example 5.2.4, 2-(2-chloro-4-morpholinophenoxy)-1-(1-(4-cyclopropyl-2-fluorophenyl)-3,4,6,7,8,9-hexahydropyrido[4′,3′:4,5]imidazo[1,2-a]pyrazin-2(1H)-yl)ethanone]	24 nM
CCc1nc(C)ccc1OCC(=O)N1CCc2nc3n(c2C1c1ccc(Cl)cc1F)CCS3 (centres unmarked) [Example 4.1.8, 1-(5-(4-chloro-2-fluorophenyl)-2,3,7,8-tetrahydrothiazolo[2′,3′:2,3]imidazo[4,5-c]pyridin-6(5H)-yl)-2-((2-ethyl-6-methylpyridin-3-yl)oxy)ethanone]	28 nM
COC(=O)c1csc(C2c3c(nc4n3CCN(C(C)=O)C4)CCN2C(=O)COc2ccc(N3CCOCC3)nc2Cl)c1 (centres unmarked) [Example 5.5.1, methyl 5-(7-acetyl-2-(2-((2-chloro-6-morpholinopyridin-3-yl)oxy)acetyl)-1,2,3,4,6,7,8,9-octahydropyrido[4′,3′:4,5]imidazo[1,2-a]pyrazin-1-yl)thiophene-3-carboxylate]	5 nM
CCc1nc(NS(C)(=O)=O)ccc1OCC(=O)N1CCc2nc3n(c2C1c1ncc(C2CC2)cc1F)CCS3 (centres unmarked) [Example 4.2.2, N-(5-(2-(5-(5-cyclopropyl-3-fluoropyridin-2-yl)-2,3,7,8-tetrahydrothiazolo[2′,3′:2,3]imidazo[4,5-c]pyridin-6(5H)-yl)-2-oxoethoxy)-6-ethylpyridin-2-yl)methanesulfonamide]	8 nM
CCc1nc(C(=O)NC2CC2)ccc1OCC(=O)N1CCc2nc3n(c2C1c1ncc(C)cc1F)CCCC3 (centres unmarked) [Example 1.6.7, N-cyclopropyl-6-ethyl-5-(2-(1-(3-fluoro-5-methylpyridin-2-yl)-3,4,6,7,8,9-hexahydroimidazo[1,2-a:5,4-c′]dipyridin-2(1H)-yl)-2-oxoethoxy)picolinamide]	8 nM
CCc1nc(NS(C)(=O)=O)ccc1OCC(=O)N1CCc2nc3n(c2C1c1sccc1F)CCCC3 (centres unmarked) [Example 1.14.1, N-(6-ethyl-5-(2-(1-(3-fluorothiophen-2-yl)-3,4,6,7,8,9-hexahydroimidazo[1,2-a:5,4-c′]dipyridin-2(1H)-yl)-2-oxoethoxy)pyridin-2-yl)methanesulfonamide]	16 nM
Cc1cnc(C2c3c(nc4n3CCCC4)CCN2C(=O)COc2ccc(N(C)S(C)(=O)=O)nc2Cl)c(F)c1 (centres unmarked) [Example 1.6.6, N-(6-chloro-5-(2-(1-(3-fluoro-5-methylpyridin-2-yl)-3,4,6,7,8,9-hexahydroimidazo[1,2-a:5,4-c′]dipyridin-2(1H)-yl)-2-oxoethoxy)pyridin-2-yl)-N-methylmethanesulfonamide]	44 nM
CN1CCN(c2ccc(OCC(=O)N3CCc4nc5n(c4C3c3ccc(Cl)cc3F)CCS5)c(Cl)n2)S1(=O)=O (centres unmarked) [Example 4.1.5, 1-(5-(4-chloro-2-fluorophenyl)-2,3,7,8-tetrahydrothiazolo[2′,3′:2,3]imidazo[4,5-c]pyridin-6(5H)-yl)-2-((2-chloro-6-(5-methyl-1,1-dioxido-1,2,5-thiadiazolidin-2-yl)pyridin-3-yl)oxy)ethanone]	12 nM

The next lines start with the values.

IC50	SMILES
29 nM	CN(C)C(=O)c1ccc(OCC(=O)N2CCc3nc4n(c3C2c2sccc2F)CCOC4)c(Cl)n1 (centres unmarked) [Example 6.6.2, 6-chloro-5-(2-(6-(3-fluorothiophen-2-yl)-3,4,8,9-tetrahydro-1H-pyrido[4′,3′:4,5]imidazo[2,1-c][1,4]oxazin-7(6H)-yl)-2-oxoethoxy)-N,N-dimethylpicolinamide]
6 nM	CC(=O)N1CCn2c(nc3c2C(c2sc(C(=O)N(C)C)cc2F)N(C(=O)COc2ccc(N4CCOCC4)nc2Cl)CC3)C1 (centres unmarked) [Example 5.7.2, 5-(7-acetyl-2-(2-((2-chloro-6-morpholinopyridin-3-yl)oxy)acetyl)-1,2,3,4,6,7,8,9-octahydropyrido[4′,3′:4,5]imidazo[1,2-a]pyrazin-1-yl)-4-fluoro-N,N-dimethylthiophene-2-carboxamide]
20 nM	Cc1ccc(C2c3c(nc4n3CCCC4)CCN2C(=O)COc2ccc(-c3ncco3)nc2Cl)c(F)c1F (centres unmarked) [Example 1.9.1, 2-((2-chloro-6-(oxazol-2-yl)pyridin-3-yl)oxy)-1-(1-(2,3-difluoro-4-methylphenyl)-3,4,6,7,8,9-hexahydroimida-zo[1,2-a:5,4-c′]dipyridin-2(1H)-yl)ethanone]
185 nM	CCc1nc(Cl)ncc1OCC(=O)N1CCc2nc3n(c2C1c1ccc(Cl)cc1F)CCS3 (centres unmarked) [Example 4.1.11, 1-(5-(4-chloro-2-fluorophenyl)-2,3,7,8-tetrahydrothiazolo[2′,3′:2,3]imidazo[4,5-c]pyridin-6(5H)-yl)-2-((2-chloro-4-ethylpyrimidin-5-yl)oxy)ethanone]
26 nM	Cc1ccc(C2c3c(nc4n3CCCC4)CCN2C(=O)COc2ccc(NS(C)(=O)=O)nc2Cl)c(F)c1F (centres unmarked) [Example 1.9.2, N-(6-chloro-5-(2-(1-(2,3-difluoro-4-methylphenyl)-3,4,6,7,8,9-hexahydroimidazo[1,2-a:5,4-c′]dipyridin-2(1H)-yl)-2-oxoethoxy)pyridin-2-yl)methanesulfonamide]
6 nM	CCc1nc(NS(C)(=O)=O)ccc1OCC(=O)N1CCc2nc3n(c2[C@@H]1c1ccc(Cl)cc1F)CCS3 [Example 4.1.15, (S)-N-(5-(2-(5-(4-chloro-2-fluorophenyl)-2,3,7,8-tetrahydrothiazolo[2′,3′:2,3]imidazo[4,5-c]pyridin-6(5H)-yl)-2-oxoethoxy)-6-ethylpyridin-2-yl)methanesulfonamide]
11 nM	O=C(COc1ccc(C2CC2)nc1Cl)N1CCc2nc3n(c2C1c1ccc(Cl)cc1F)CCS3 (centres unmarked) [Example 4.1.13, 1-(5-(4-chloro-2-fluorophenyl)-2,3,7,8-tetrahydrothiazolo[2′,3′:2,3]imidazo[4,5-c]pyridin-6(5H)-yl)-2-((2-chloro-6-cyclopropylpyridin-3-yl)oxy)ethanone]
7 nM	CCc1nc(NS(C)(=O)=O)ccc1OCC(=O)N1CCc2nc3n(c2[C@@H]1c1sc(C)nc1C)CCC3 [Example 2.4.2, (R)-N-(5-(2-(1-(2,4-dimethylthiazol-5-yl)-3,4,7,8-tetrahydro-1H-pyrrolo[2′,1′:2,3]imidazo[4,5-c]pyridin-2(6H)-yl)-2-oxoethoxy)-6-ethylpyridin-2-yl)methanesulfonamide]
9 nM	CC(=O)N1CCn2c(nc3c2C(c2ncc(C4CC4)cc2F)N(C(=O)COc2ccc(N4CCOCC4)nc2Cl)CC3)C1 (centres unmarked) [Example 5.4.6, 1-(7-acetyl-1-(5-cyclopropyl-3-fluoropyridin-2-yl)-3,4,6,7,8,9-hexahydropyrido[4′,3′:4,5]imidazo[1,2-a]pyrazin-2(1H)-yl)-2-((2-chloro-6-morpholinopyridin-3-yl)oxy)ethanone]
34 nM	COCCOc1ccc(C2c3c(nc4n3CCCC4)CCN2C(=O)COc2ccc(NS(C)(=O)=O)nc2Cl)c(F)c1 (centres unmarked) [Example 1.27.2, N-(6-chloro-5-(2-(1-(2-fluoro-4-(2-methoxyethoxy)phenyl)-3,4,6,7,8,9-hexahydroimidazo[1,2-a:5,4-c′]dipyridin-2(1H)-yl)-2-oxoethoxy)pyridin-2-yl)methanesulfonamide]
143 nM	CS(=O)(=O)Nc1ccc(OCC(=O)N2CCc3nc4n(c3C2c2ncc(Cl)cc2F)CCOC4)c(Cl)n1 (centres unmarked) [Example 6.4.1, N-(6-chloro-5-(2-(6-(5-chloro-3-fluoropyridin-2-yl)-3,4,8,9-tetrahydro-1H-pyrido[4′,3′:4,5]imidazo[2,1-c][1,4]oxazin-7(6H)-yl)-2-oxoethoxy)pyridin-2-yl)methanesulfonamide]
20 nM	CN(C(=O)c1ccc(OCC(=O)N2CCc3nc4n(c3C2c2ccc(C3CC3)cc2F)CCCC4)c(Cl)n1)C1CC1 (centres unmarked) [Example 1.8.1, 6-chloro-N-cyclopropyl-5-(2-(1-(4-cyclopropyl-2-fluorophenyl)-3,4,6,7,8,9-hexahydroimidazo[1,2-a:5,4-c′]dipyridin-2(1H)-yl)-2-oxoethoxy)-N-methylpicolinamide]
15 nM	CC(=O)N1CCn2c(nc3c2C(c2ncc(C4CC4)cc2F)N(C(=O)COc2cc(F)c(N4CCOCC4)nc2Cl)CC3)C1 (centres unmarked) [Example 5.4.9, 1-(7-acetyl-1-(5-cyclopropyl-3-fluoropyridin-2-yl)-3,4,6,7,8,9-hexahydropyrido[4′,3′:4,5]imidazo[1,2-a]pyrazin-2(1H)-yl)-2-((2-chloro-5-fluoro-6-morpholinopyridin-3-yl)oxy)ethanone]
